The values below come from paper PMC9381536, “Non-apoptotic cell death induction via sapogenin based supramolecular particles” (Scientific Reports, 2022).

Data set [1] concerns Calnexin. Nature of the data set: Calnexin immunofluorescence. It counts as cell-based. The settings on record: AG-08 treated cells. An excerpt:
Figure 3 mRNA microarray analysis was used to identify differentially expressed genes via AG-08 treatment. (A) Heatmap representing the expressions of 193 genes with significant different expression in AG-08 treated cells compared with control. Heatmap was generated by GraphPad Prism version 8 (https://www.graphpad.com/scientific-software/prism/). (B) Protein–protein network analysis was formed via STRING. The thickness of the connecting lines indicates the strength of data support for physical and/or functional associations. (C) Pathway enrichment was determined using GO, KEGG, and Reactome pathway analysis. […] Size of circle represents the significance of enrichment. (D) The protein levels of CHOP were determined via IB. 0.5 µg/ml tunicamycin (Tun) was used as positive control. The experiments were repeated three times independently; with one representative result shown. (E) mRNA level of the CHOP was investigated using quantitative PCR (q-RTPCR). Error bars represent standard error (s.e.). p-values were calculated with respect to vehicle-treated cells by one-way Anova test. (**p < 0.005, ****p < 0.0001). (F) The expression and localization of Calnexin protein were evaluated using immunofluorescence via anti-Calnexin antibody (scale bar 25 µm).
Cells were grown on glass coverslips and treated with AG-08. […] Mounted samples were analyzed by fluorescence microscopy (Olympus IX70, Japan).

Data set [2] deals with HeLa. The experiment in a line: Cytotoxicity analysis (WST-1). It counts as cell-based. The settings on record: Homo sapiens, 48 h. A general note: Formazan colour is commonly taken as a measure of viable cells.
The subject of data set [3] is MCF7. The experiment in a line: Cytotoxicity analysis (WST-1). It counts as cell-based. Conditions: Homo sapiens, MCF7, 48 h.
The subject of data set [4] is MRC-5. The experiment in a line: Cytotoxicity analysis (WST-1). It counts as cell-based. The settings on record: Homo sapiens, MRC5, MRC-5 normal cell line, 48 h.
Data set [5] deals with HCC1937. Also noted: method as in PMID 33136369. Conditions: cited from earlier work.
Data set [6] is described as follows: Nile red staining (particle formation). It counts as physicochemical. The settings on record: Nile red, PBS, 3 h. Here is the method: AG-08 and AG were dissolved in DMSO as a 1000-fold concentrated stock added into the filtered PBS, which contain 2.5 µM Nile red. After 3 h incubation at room temperature, the fluorescence intensity was measured with a microplate reader (550 nm for excitation and 635 nm for the emission wavelength) (Varioscan, Thermo Fisher Scientific, US).

The subject of data set [7] is EEA1. The experiment in a line: EEA1 immunofluorescence. The settings on record: HCC1937, AG-08 16 h. It counts as cell-based, Human. Here is the method: Figure 2 AG-08 is related with endosomal pathway. (A) After pre-treatment with 20 µM pitstop II, 0.5 mM methyl-β-cyclodextrin (MβC), 80 µM dynasore, 20 µM cytochalasin d (Cyto D) or 20 µM chlorpromazine (CPZ) for 1 h, HCC1937 cells were treated with 8 µM AG-08 for 24 h. Then cell viability was determined by using WST-1. Reported values were normalized on cells treated with only AG-08. Error bars are the standard deviations (n = 3). p-values were calculated with respect to AG-08 treated cells by two-tailed equal variance Student’s t-test (*p < 0.05, ***p < 0.001, ****p < 0.0001) (B) HCC1937 cells were treated with brefeldin A (Bref A) for 1 h and then treated with 8 µM AG-08 for 24 h. Error bars represent standard deviations (n = 3). p-values were calculated with respect to AG-08-treated cells (*p < 0.05, **p < 0.005, ***p < 0.001). (C) Following AG-08 treatment for 16 h, EEA1 proteins were stained using the anti-EEA1 antibody in HCC1937 cells (scale bar = 25 µm).
Cells were grown on glass coverslips and treated with AG-08. At the end of treatments, cells were washed twice with ice-cold PBS and fixed with 4% paraformaldehyde in PBS for 30 min at 4 °C. After washing 6 times with PBS, cells were permeabilized and blocked with 0.01% saponin and 0,01% BSA in PBS. […] Mounted samples were analyzed by fluorescence microscopy (Olympus IX70, Japan).

Data set [8] can be described thus: Measurement of particle diameter via Zeta Sizer. It counts as physicochemical. The settings on record: PBS, DLS. Here is the method: AG-08 was dissolved in DMSO a 1000-fold concentrated stock and added into the filtered PBS. Then particle diameter was immediately measured via zeta-sizer (DLS–Particulate Systems). Measurement was repeated in triplicate.
For data set [9], the system named is A549. Also noted: method as in PMID 33136369. The settings on record: cited from earlier work.

One may read the IC50 as the concentration that gives 50% inhibition. For the compound `Cc1ccc(S(=O)(=O)OC2CCC3(C)C4=CCC5(C)C(C6(C)CCC(C(C)(C)O)O6)C(O)CC5(C)C4C=CC3C2(C)C)cc1` (stereo not shown) [AG-08], in data set [1], the “intensity of calnexin staining” value was “significantly increased”. Further, the IC50 in data set [2] was 5.7 µM; in data set [3] it was 3.78 µM; in data set [4], 2.58 µM; in data set [5], 3.81 µM; in [9] it was 2.3 µM. Besides, in data set [6], the critical assembly concentration entry was “approximately 2 µM”. In addition, the EEA1 positive vesicles result in data set [7] is recorded as “dramatic decrease”. Besides, the “Diameter of supramolecular structures (hydrodynamic)” value in [8] amounted to 153.2 ± 4.6. This compound returned a polydispersity index in data set [8] of 0.218.
